Reference: ChEMBL document CHEMBL1201862, “PubChem BioAssay data set” (2004)
Activity calls are given as the source filed them.

Tests used:
Assay type in all cases: functional
[1] = molecular target: Melanin-concentrating hormone receptor 1 (Homo sapiens, UniProt Q99705); assay: Late-stage fluorescence-based counterscreen for antagonists of the G-protein coupled receptor 7 (GPR7): cell-based dose response assay to identify antagonists of the melanin-concentrating hormone receptor 1 (MCHR1). [Related pubchem assays (depositor defined):AID1861, AID1880, AID1952, AID2148, AID2251, AID2257, AID485339];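 also: stimulated with 30 nM MCH peptide agonist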
[2] = Late-stage luminescence-based cell-based dose response assay to identify antagonists of the G-protein coupled receptor 7 (GPR7): Cytotoxicity assay. [Related pubchem assays (depositor defined):AID1861, AID1880, AID1952, AID2148, AID2251, AID2257, AID485339]
[3] = Late-stage results from the probe development effort to identify antagonists of the G-protein coupled receptor 7 (GPR7): luminescence-based cell-based dose response counterscreen assay to determine cytotoxicity of antagonist compounds Set 2.
[4] = SAR analysis of small molecule activators of Apaf-1 using a LZ-Caspase-9/Caspase-3 Fluorescent Selectivity assay - Set 2.; conditions: read-out: EC50_Mean
[5] = molecular target: T1, Apoptotic protease-activating factor 1 (Homo sapiens, UniProt O14727); assay: SAR analysis of small molecule Activators of Apaf-1 in a Fluorescent assay - set 2.; conditions: read-out: EC50_Mean
T1 sequence (O14727 whole entry): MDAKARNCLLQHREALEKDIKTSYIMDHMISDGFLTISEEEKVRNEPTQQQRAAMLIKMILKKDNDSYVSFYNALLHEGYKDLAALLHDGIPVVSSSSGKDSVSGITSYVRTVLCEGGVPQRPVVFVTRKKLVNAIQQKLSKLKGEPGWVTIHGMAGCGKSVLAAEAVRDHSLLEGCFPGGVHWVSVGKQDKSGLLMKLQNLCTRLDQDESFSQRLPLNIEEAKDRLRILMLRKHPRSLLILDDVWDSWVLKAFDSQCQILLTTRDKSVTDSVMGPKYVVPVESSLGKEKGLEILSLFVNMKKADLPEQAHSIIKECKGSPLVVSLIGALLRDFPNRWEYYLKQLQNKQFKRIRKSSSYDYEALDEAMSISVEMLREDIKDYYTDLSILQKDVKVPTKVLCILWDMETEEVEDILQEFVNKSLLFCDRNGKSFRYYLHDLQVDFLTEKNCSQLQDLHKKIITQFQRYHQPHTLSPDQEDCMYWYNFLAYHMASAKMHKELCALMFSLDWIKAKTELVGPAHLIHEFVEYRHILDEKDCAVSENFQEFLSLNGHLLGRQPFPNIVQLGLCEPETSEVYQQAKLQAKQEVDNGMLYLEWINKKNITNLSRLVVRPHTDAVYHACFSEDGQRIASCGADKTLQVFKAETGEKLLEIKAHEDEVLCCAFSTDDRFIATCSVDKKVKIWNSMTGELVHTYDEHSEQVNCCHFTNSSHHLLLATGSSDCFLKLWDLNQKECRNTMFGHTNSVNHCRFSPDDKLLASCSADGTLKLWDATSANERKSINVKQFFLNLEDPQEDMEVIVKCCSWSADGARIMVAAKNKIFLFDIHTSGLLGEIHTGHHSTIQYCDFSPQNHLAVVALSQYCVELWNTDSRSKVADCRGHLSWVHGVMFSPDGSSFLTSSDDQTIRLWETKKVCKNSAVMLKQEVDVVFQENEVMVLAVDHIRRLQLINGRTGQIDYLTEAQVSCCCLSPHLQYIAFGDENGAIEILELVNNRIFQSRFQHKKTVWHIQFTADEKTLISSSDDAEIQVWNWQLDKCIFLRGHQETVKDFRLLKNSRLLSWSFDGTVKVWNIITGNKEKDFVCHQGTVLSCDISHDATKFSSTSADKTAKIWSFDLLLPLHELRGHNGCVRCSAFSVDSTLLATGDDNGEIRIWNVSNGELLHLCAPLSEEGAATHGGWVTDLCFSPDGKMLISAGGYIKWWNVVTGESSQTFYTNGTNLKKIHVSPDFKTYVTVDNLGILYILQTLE

[6] = molecular target: Protein kinase C theta type (Homo sapiens, UniProt Q04759); assay: Navigating the Kinome. Panel member name: PRKCQ
[7] = molecular target: Proto-oncogene tyrosine-protein kinase receptor Ret (Homo sapiens, UniProt P07949);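 also: measured within a kinome-wide profiling panel, RET as the panel member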
[8] = molecular target: Death-associated protein kinase 3 (Homo sapiens, UniProt O43293);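 also: measured as one member of a kinome-wide profiling panel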
[9] = molecular target: Aurora kinase A (Homo sapiens, UniProt O14965);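 also: value from the Navigating the Kinome kinase panel profiling, panel entry STK6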
[10] = molecular target: Glycogen synthase kinase-3 alpha (Homo sapiens, UniProt P49840);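 also: GSK3A result taken from a broad kinome-wide kinase panel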
Chain of Glycogen synthase kinase-3 alpha (P49840 whole entry): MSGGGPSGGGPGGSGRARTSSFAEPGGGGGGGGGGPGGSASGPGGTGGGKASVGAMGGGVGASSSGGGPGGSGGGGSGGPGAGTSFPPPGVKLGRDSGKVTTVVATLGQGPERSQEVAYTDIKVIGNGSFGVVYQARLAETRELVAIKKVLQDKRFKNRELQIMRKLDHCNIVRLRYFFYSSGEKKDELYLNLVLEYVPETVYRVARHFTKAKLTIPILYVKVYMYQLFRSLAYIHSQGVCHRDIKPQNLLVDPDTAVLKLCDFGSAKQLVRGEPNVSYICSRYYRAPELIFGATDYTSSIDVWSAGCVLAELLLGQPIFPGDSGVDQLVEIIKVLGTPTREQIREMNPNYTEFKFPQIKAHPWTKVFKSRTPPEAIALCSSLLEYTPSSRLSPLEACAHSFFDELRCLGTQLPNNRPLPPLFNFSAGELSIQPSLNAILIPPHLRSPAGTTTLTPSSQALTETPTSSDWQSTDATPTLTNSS

[11] = molecular target: Activated CDC42 kinase 1 (Homo sapiens, UniProt Q07912); assay: Navigating the Kinome. Panel member name: ACK1
[12] = molecular target: Vascular endothelial growth factor receptor 2 (Homo sapiens, UniProt P35968)
[13] = molecular target: Cyclin-dependent kinase 5 (Homo sapiens, UniProt Q00535);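 also: CDK5 measured as one member of a kinase profiling panel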
[14] = molecular target: Dual specificity tyrosine-phosphorylation-regulated kinase 1B (Homo sapiens, UniProt Q9Y463); assay: Navigating the Kinome. Panel member name: DYRK1B
[15] = molecular target: Focal adhesion kinase 1 (Homo sapiens, UniProt Q05397);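 also: measured as one member of a kinome panel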
[16] = molecular target: Cyclin-dependent kinase 19 (Homo sapiens, UniProt Q9BWU1); assay: Navigating the Kinome. Panel member name: CDC2L6
[17] = molecular target: Cyclin-dependent kinase 8 (Homo sapiens, UniProt P49336); assay: Navigating the Kinome. Panel member name: CDK8
Chain of Cyclin-dependent kinase 8 (P49336 whole entry): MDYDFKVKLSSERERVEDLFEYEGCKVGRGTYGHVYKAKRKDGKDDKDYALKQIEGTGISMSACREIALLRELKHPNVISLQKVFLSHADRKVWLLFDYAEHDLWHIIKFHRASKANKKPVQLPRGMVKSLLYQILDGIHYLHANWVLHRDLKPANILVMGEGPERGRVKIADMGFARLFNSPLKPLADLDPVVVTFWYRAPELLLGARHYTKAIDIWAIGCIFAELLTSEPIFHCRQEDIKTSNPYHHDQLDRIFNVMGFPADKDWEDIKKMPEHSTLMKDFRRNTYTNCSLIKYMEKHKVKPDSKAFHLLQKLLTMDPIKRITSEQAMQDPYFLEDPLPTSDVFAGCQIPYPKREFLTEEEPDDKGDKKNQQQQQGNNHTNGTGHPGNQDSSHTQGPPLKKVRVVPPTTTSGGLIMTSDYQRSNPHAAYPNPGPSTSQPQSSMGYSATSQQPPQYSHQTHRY

[18] = molecular target: Glycogen synthase kinase-3 beta (Homo sapiens, UniProt P49841);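 also: value comes from a broad kinome profiling panel, with GSK3B as the panel member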
Chain of Glycogen synthase kinase-3 beta (P49841 whole entry): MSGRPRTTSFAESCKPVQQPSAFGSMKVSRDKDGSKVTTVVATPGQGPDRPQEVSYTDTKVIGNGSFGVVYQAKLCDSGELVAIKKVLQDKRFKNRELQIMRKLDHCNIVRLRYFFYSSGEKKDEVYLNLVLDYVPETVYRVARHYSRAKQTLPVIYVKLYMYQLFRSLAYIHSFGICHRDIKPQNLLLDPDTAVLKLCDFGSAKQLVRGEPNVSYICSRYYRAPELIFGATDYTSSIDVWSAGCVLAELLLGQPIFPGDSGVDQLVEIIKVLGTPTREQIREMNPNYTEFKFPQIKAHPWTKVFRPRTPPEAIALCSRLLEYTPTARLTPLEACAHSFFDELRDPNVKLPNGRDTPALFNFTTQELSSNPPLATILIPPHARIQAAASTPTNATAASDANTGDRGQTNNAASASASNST

[19] = molecular target: Cyclin-dependent kinase 9 (Homo sapiens, UniProt P50750);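 also: value from the CDK9 entry of a kinome-spanning kinase panel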
[20] = molecular target: cAMP-dependent protein kinase catalytic subunit alpha (Homo sapiens, UniProt P17612)
[21] = molecular target: Dual specificity protein kinase CLK4 (Homo sapiens, UniProt Q9HAZ1)
Chain of Dual specificity protein kinase CLK4 (Q9HAZ1 whole entry): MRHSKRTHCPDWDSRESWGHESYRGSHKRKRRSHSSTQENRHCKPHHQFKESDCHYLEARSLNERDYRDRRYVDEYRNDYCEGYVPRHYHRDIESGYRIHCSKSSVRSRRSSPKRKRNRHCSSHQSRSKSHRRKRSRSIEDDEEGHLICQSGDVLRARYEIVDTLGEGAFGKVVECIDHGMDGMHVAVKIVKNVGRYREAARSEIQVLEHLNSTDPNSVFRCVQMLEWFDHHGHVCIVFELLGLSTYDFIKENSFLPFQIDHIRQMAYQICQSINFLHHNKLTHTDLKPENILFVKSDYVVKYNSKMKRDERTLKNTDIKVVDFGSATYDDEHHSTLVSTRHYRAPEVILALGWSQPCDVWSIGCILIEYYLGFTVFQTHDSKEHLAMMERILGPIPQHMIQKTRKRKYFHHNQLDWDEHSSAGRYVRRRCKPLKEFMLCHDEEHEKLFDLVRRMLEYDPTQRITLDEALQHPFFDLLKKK

[22] = molecular target: Macrophage colony-stimulating factor 1 receptor (Homo sapiens, UniProt P07333);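 also: value comes from the Navigating the Kinome screening panel, CSF1R member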
[23] = molecular target: Dual specificity tyrosine-phosphorylation-regulated kinase 1A (Homo sapiens, UniProt Q13627);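 also: measured against DYRK1A as one member of a broad kinome profiling panel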
[24] = molecular target: Sphingosine 1-phosphate receptor 1 (Homo sapiens, UniProt P21453); assay: Late-stage fluorescence-based dose-response cell-based counterscreen assay to identify agonists of the Sphingosine 1-Phosphate Receptor 4 (S1P4): Sphingosine 1-Phosphate Receptor 1 (S1P1) agonist assay Set 2.
[25] = molecular target: Sphingosine 1-phosphate receptor 5 (Homo sapiens, UniProt Q9H228); assay: S1P5 receptor agonists, human, late-stage follow-up, counter-screen for S1P4 agonist project, cell-based, fluorescence, set 2 (AID 504867)
Chain of Sphingosine 1-phosphate receptor 5 (Q9H228 whole entry): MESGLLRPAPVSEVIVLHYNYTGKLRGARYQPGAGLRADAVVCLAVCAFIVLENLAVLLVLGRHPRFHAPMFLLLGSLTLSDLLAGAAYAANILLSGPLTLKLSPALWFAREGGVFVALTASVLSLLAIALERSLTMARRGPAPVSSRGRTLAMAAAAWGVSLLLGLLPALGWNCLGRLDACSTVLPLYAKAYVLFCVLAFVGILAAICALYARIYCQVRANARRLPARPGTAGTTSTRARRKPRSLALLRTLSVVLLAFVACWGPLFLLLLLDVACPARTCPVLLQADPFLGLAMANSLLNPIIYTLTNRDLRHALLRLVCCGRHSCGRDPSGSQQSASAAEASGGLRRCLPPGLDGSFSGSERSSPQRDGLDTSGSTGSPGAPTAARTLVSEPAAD

[26] = molecular target: Sphingosine 1-phosphate receptor 3 (Homo sapiens, UniProt Q99500); assay: Late-stage fluorescence-based dose-response cell-based counterscreen assay to identify agonists of the Sphingosine 1-Phosphate Receptor 4 (S1P4): Sphingosine 1-Phosphate Receptor 3 (S1P3) agonist assay Set 2.
[27] = molecular target: Sphingosine 1-phosphate receptor 2 (Homo sapiens, UniProt O95136); assay: S1P2 receptor agonists, human, late-stage follow-up, counter-screen for S1P4 agonist project, cell-based, fluorescence, set 2 (AID 504873)
Chain of Sphingosine 1-phosphate receptor 2 (O95136 whole entry): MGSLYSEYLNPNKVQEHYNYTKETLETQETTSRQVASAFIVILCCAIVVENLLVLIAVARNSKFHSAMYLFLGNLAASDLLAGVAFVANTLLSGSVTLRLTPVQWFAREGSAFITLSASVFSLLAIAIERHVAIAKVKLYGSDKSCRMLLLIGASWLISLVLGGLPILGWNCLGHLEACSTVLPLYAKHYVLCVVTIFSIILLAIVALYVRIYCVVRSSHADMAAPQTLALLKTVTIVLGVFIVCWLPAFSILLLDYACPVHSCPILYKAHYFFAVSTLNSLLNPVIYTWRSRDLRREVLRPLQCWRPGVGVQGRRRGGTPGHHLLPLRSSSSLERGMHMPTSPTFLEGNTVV

[28] = molecular target: Cyclin-dependent kinase 2 (Homo sapiens, UniProt P24941);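 also: CDK2 measured as one member of a broad kinome profiling panel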
[29] = molecular target: Serine/threonine-protein kinase pim-1 (Homo sapiens, UniProt P11309)
[30] = molecular target: Cell division cycle 7-related protein kinase (Homo sapiens, UniProt O00311);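 also: value obtained from a kinome-wide kinase panel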
[31] = molecular target: Homeodomain-interacting protein kinase 2 (Homo sapiens, UniProt Q9H2X6);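 also: measured within a kinome-wide kinase profiling panel, HIPK2 being one panel member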
Chain of Homeodomain-interacting protein kinase 2 (Q9H2X6 whole entry): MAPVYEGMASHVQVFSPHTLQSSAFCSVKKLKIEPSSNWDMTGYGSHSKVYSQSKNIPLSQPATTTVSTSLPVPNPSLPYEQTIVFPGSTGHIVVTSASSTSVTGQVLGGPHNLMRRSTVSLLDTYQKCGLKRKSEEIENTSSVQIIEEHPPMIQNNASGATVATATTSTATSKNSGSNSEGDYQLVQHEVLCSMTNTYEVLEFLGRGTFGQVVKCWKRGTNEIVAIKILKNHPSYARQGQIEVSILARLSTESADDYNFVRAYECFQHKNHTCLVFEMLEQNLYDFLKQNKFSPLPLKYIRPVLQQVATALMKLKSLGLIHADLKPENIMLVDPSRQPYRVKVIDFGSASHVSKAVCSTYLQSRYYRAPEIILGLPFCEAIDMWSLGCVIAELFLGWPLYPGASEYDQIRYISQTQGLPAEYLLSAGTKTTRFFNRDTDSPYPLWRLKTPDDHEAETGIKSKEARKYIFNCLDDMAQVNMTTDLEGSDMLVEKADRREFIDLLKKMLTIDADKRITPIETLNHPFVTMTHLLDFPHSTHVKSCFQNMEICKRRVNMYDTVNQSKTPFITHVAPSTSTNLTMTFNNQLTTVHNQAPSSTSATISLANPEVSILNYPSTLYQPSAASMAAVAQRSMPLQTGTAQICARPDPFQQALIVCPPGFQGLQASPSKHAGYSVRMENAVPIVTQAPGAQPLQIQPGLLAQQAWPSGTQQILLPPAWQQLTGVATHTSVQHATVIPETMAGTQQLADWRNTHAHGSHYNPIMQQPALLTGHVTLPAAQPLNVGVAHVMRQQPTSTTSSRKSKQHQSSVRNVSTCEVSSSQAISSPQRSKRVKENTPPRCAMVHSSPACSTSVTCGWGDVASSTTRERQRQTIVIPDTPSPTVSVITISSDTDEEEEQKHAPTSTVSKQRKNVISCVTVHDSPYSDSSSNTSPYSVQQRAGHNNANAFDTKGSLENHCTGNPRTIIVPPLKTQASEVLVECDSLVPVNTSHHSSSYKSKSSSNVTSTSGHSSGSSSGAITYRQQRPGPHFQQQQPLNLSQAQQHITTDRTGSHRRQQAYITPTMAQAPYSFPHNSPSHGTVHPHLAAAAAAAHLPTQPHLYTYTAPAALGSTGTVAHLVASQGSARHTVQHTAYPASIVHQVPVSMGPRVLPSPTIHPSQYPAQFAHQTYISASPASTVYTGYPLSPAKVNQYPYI

[32] = molecular target: MAP kinase-interacting serine/threonine-protein kinase 2 (Homo sapiens, UniProt Q9HBH9)
[33] = molecular target: Interleukin-1 receptor-associated kinase 4 (Homo sapiens, UniProt Q9NWZ3)
[34] = molecular target: Mitogen-activated protein kinase kinase kinase kinase 4 (Homo sapiens, UniProt O95819)
Chain of Mitogen-activated protein kinase kinase kinase kinase 4 (O95819 whole entry): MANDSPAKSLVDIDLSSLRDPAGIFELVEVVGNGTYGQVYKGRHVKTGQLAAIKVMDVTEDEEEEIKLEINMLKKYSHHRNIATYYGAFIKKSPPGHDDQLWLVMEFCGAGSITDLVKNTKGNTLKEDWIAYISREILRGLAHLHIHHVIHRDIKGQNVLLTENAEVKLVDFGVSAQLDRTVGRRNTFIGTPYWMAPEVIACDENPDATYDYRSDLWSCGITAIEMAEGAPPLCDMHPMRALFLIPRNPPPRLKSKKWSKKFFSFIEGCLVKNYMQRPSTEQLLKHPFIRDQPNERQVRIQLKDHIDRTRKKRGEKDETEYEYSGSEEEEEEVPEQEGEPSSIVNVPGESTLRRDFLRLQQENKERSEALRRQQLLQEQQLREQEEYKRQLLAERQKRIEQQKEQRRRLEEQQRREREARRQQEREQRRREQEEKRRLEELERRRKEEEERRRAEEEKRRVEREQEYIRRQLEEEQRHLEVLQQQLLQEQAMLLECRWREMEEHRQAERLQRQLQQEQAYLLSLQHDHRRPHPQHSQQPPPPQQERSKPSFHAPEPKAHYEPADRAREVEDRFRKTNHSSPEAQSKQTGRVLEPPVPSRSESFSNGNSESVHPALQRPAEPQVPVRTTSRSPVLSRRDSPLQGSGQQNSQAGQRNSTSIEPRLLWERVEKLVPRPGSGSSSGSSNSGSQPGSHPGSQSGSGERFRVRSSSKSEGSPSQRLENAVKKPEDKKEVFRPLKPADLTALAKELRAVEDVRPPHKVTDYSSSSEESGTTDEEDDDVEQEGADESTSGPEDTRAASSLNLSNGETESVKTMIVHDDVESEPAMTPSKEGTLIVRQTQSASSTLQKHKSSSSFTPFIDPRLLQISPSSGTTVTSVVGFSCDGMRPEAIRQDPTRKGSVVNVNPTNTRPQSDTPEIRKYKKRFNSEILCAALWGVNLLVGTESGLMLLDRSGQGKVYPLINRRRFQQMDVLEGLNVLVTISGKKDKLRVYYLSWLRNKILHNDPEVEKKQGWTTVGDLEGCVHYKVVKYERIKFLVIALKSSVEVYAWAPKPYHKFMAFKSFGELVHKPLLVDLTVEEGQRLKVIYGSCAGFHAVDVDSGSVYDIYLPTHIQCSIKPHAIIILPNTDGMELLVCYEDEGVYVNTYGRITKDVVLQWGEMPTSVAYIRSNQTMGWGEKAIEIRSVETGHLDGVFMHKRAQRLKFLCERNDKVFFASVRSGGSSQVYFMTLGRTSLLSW

[35] = molecular target: Melanocortin receptor 4 (Homo sapiens, UniProt P32245); assay: MC4R antagonist potency on cAMP, dose response, cell-based, TR-FRET, biased antagonists (AID 602298);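 also: antagonist potency against agonist-stimulated cAMP production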
[36] = nonselective inhibitors of cellular cAMP signaling, dose response, counter-screen for MC4R biased antagonist project, cell-based, TR-FRET cAMP detection (AID 602305);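 also: U2OS cells stimulated with forskolin near its EC80 as the cAMP inducer; potency is for inhibition of forskolin-stimulated cAMP signaling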
[37] = molecular target: DNA dC->dU-editing enzyme APOBEC-3A (Homo sapiens, UniProt P31941); assay: SAR analysis of small molecule inhibitors of APOBEC3A DNA Deaminase via a fluorescence-based single-stranded DNA deaminase assay - Set 2.; conditions: read-out: IC50_Mean
[38] = molecular target: DNA dC->dU-editing enzyme APOBEC-3G (Homo sapiens, UniProt Q9HC16); assay: SAR analysis of small molecule inhibitors of APOBEC3G DNA Deaminase via a fluorescence-based single-stranded DNA deaminase assay - Set 2.; conditions: read-out: IC50_Mean
[39] = molecular target: Protein disulfide-isomerase (Homo sapiens, UniProt P07237); assay: PDI inhibitors, insulin aggregation turbidity, dose response, biochemical, absorbance, cherry-picked samples (AID 602350)

COc1ccc(Oc2c(Cl)cnn(-c3cc(C)cc(C)c3)c2=O)cc1
IC50 [1]: 3.9 µM (active) | CC50 [2]: > 20 µM (inactive) | CC50 [3]: > 20 µM (inactive)

CC(CN1CCCC1)C(=O)O (configuration not stated)
EC50 [4]: > 100 µM (inactive) | EC50 [5]: > 100 µM (inactive)

O=C1CN2C(=NN1)COc1ccccc12
Ki [6]: 3.98 µM (active) | Ki [7]: 50.1 µM (active) | Ki [8]: 10 µM (active) | Ki [9]: > 63.1 µM (inactive) | Ki [10]: 50.1 µM (active) | Ki [11]: 25.1 µM (active) | Ki [12]: > 100 µM (inactive) | Ki [13]: 5.01 µM (active) | Ki [14]: 31.6 µM (active) | Ki [15]: 100 µM (active) | Ki [16]: > 100 µM (inactive) | Ki [17]: 3.98 µM (active) | Ki [18]: 31.6 µM (active) | Ki [19]: > 63.1 µM (inactive) | Ki [20]: 39.8 µM (active) | Ki [21]: 3.98 µM (active) | Ki [22]: > 100 µM (inactive) | Ki [23]: 63.1 µM (active)

CC/N=C1/S/C(=C/c2cc(C)n(-c3ccc(Cl)cc3F)c2C)C(=O)N1CC
EC50 [24]: 0.274 µM (active) | EC50 [25]: 0.0367 µM (active) | EC50 [26]: > 25 µM (inactive) | EC50 [27]: > 25 µM (inactive)

O=C(O)c1ccccc1Nc1ccnc(NCc2cccc(O)c2)n1
Ki [28]: > 7.94 µM (inactive) | Ki [29]: 2 µM (active) | Ki [30]: 0.0316 µM (active) | Ki [31]: > 3.16 µM (inactive) | Ki [32]: > 10 µM (inactive) | Ki [33]: > 10 µM (inactive) | Ki [18]: 1.26 µM (active) | Ki [20]: > 7.94 µM (inactive) | Ki [21]: 5.01 µM (active) | Ki [34]: 0.631 µM (active)

O=C(Nc1ccccc1)OC1CCC2CC1CCC2OC(=O)Nc1ccccc1 (configuration not stated)
IC50 [35]: 7.46 µM (active) | IC50 [36]: > 64.6 µM (inactive)

O=C(O)c1cc2nccc(-c3cccs3)n2n1
IC50 [37]: > 99 µM (inactive) | IC50 [38]: > 99 µM (inactive)

O=c1c(O[C@H]2O[C@@H](CO)[C@H](O)[C@@H](O)[C@@H]2O)c(-c2ccc(O)cc2)oc2cc(O)cc(O)c12
AC50 [39]: 0.0155 µM (active)
